Measured values taken from publication PMC11083148, “Structure–Activity Relationship Studies on Highly Functionalized Pyrazole Hydrazones and Amides as Antiproliferative and Antioxidant Agents” (International Journal of Molecular Sciences, 2024).
Values joined by “and” are separate entries in the source; they are usually repeats but may differ in a detail not shown here. Equal entries are not always repeated.

What was measured:
[1] = system: A549; assay: MTT assay, antiproliferative activity; assay type: cell-based; details: Homo sapiens, 48h, read-out: Mean Growth Percentage
Description: (§1) Pyrazole acylhydrazones 10–13 and amides 14–22 were tested by MTT assay to evaluate their antiproliferative and cytotoxicity properties against a panel of eight tumor cell lines and normal fibroblasts.
(§2) All reagents were purchased from EuroClone, Milan, Italy). The following cell lines were used for MTT assays: SKOV-3 (ovarian adenocarcinoma, ATCC, Manassas, VA, USA); MCF-7 (breast adenocarcinoma, Biologic Bank and Cell Factory, IRCCS Policlinico San Martino, Genoa, Italy); Hep-G2 (hepatocellular carcinoma, ATCC, Manassas, VA, USA); SK-MEL28 (skin melanoma, Biologic Bank and Cell Factory, IRCCS Policlinico San Martino, Genoa, Italy), GM-6114 (embryonic human fibroblast, ATCC, Manassas, VA, USA); MDA-MB231 (breast adenocarcinoma, Biologic Bank and Cell Factory, IRCCS Policlinico San Martino, Genoa, Italy); HeLa (cervical adenocarcinoma, Biologic Bank and Cell Factory, IRCCS Policlinico San Martino, Genoa, Italy); SK-BR3 (breast andenocarcinoma, Biologic Bank and Cell Factory, IRCCS Policlinico San Martino, Genoa, Italy); A549 (lung carcinoma, Biologic Bank and Cell Factory, IRCCS Policlinico San Martino, Genoa, Italy); HUVEC (Human Umbilical Vein Endothelial Cells, ATCC, Manassas, VA, USA). All cell lines were grown in their medium with 10% FBS, 2 mM Glutamine, and 1% penstrep and incubated at 37 °C in 5% CO2 in a humidified environment. The cell lines were plated in 96-well plates at an adequate number to reach 80–90% confluence at the end of the assay. 16 h after cell plating, a 10 mM DMSO stock solution of the compounds was diluted in growth medium and added at a final working concentration of 10 μM. After 48h of incubation, a 2 mg/mL PBS solution of MTT (3-(4,5-dimethyl-2-thiazolyl)-2,5-diphenyl-2H-tetrazolium bromide) was added (30 μL/well). After 4h, the supernatant was removed, and the Formazan precipitates were dissolved in DMSO (100 μL/well). The 96-well plates were incubated for 20 min, and absorbance was measured at 570 nm using a plate reader. The results are expressed as a percentage ratio over control samples (100%) in which the cells were incubated with the same amount of DMSO but without compounds. Each value is the mean of three independent experiments run in six replicates.

[2] = system: Hep-G2; assay: MTT assay, antiproliferative activity; assay type: cell-based; details: Homo sapiens, HepG2, 48h
Description: as §1, §2

[3] = system: MDA-MB231; assay: MTT assay, antiproliferative activity; assay type: cell-based; details: Homo sapiens, MDA-MB-231, 48h
Description: as §1, §2

[4] = system: SK-BR3; assay: MTT assay, antiproliferative activity; assay type: cell-based; details: Homo sapiens, SK-BR-3, 48h
Description: as §1, §2

[5] = system: HeLa; assay: MTT assay, antiproliferative activity; assay type: cell-based; details: Homo sapiens, 10 µM, 48h, read-out: Mean Growth Percentage
Description: as §1, §2
(§3) Each IC50 value is the mean of three independent experiments run in duplicate.

[6] = system: MCF7; assay: MTT assay, antiproliferative activity; assay type: cell-based; details: Homo sapiens, 10 µM, 48h
Description: as §1, §2, §3

[7] = system: SKMEL28; assay: MTT assay, antiproliferative activity; assay type: cell-based; details: Homo sapiens, SK-MEL-28, 10 µM, 48h
Description: as §1, §2, §3

[8] = system: SKOV3; assay: MTT assay, antiproliferative activity; assay type: cell-based; details: Homo sapiens, SK-OV-3, 10 µM, 48h
Description: as §1, §2, §3

[9] = system: GM-6114; assay: MTT assay, cytotoxicity on normal fibroblasts; assay type: cell-based; details: human, 48 h, 10 µM
[10] = system: washed platelets; assay: Platelet aggregation (thrombin-induced, Born's method); assay type: cell-based; details: Homo sapiens, 0.1 U/mL thrombin, mean ± SD, read-out: IC50 Aggregation inhibition
Description: (§4) The antioxidant properties of acylhydrazones 10–13 and pyrazolyl amides 14–22 were tested by evaluating their inhibition of platelet aggregation and ROS production (Figure 3, Table S1). In fact, human platelets could represent a fast and low-cost biological model to screen compounds as anticancer, anti-inflammatory, and antiaggregating agents. Moreover, ROS production inhibition, related to human platelet aggregation, could provide a good indication of the anti-inflammatory and antioxidant properties of the newly synthesized compounds [47, 50, 51, 52]. N-acetylcysteine (NAC) and acetyl salicylic acid (ASA) were used as reference drugs for antioxidant and antiaggregant activities, respectively.
(§5) Freshly drawn venous blood from healthy volunteers from “Centro Trasfusionale” (IRCCS Policlinico San Martino, Genoa, Italy) was collected into a 130 mM aqueous trisodium citrate anticoagulant solution (9:1). The donors claimed to not have taken drugs known to interfere with platelet function during the two weeks prior to blood collection and gave their informed consent. Whole blood was centrifuged at 100× g for 20 min to afford platelet-rich plasma that was then spun at 1100× g for 15 min. The obtained pellet was washed once with a pH 5.2 ACD solution (75 mM trisodium citrate, 42 mM citric acid, and 136 mM glucose), centrifuged at 1100× g for 15 min, and then re-suspended in pH 7.4 Hepes buffer (145 mM NaCl, 5 mM KCl, 1 mM MgSO4, 10 mM glucose, and 10 mM HEPES).
Thrombin was purchased from Sigma-Aldrich/Merck Millipore. A DMSO solution of compounds 10–22 was diluted in saline immediately before each experiment and added to the washed platelets (3.0 × 10^8/mL) at 37 °C. After 3 min, 0.1 U/mL thrombin was added, and platelet aggregation was quantified according to Born’s method using a Bio-Data Aggregometer (Bio-Data Corporation, Horsham, PA, USA). The IC50 values were calculated as detailed above.

[11] = system: washed platelets; assay: ROS assay in platelets (DCFH-DA, thrombin-stimulated); assay type: cell-based, human; details: Homo sapiens, Platelet, 0.1 U/mL thrombin, mean ± SD, read-out: IC50 ROS production inhibition
Description: as §4, §5
2′,7′-Dichlorofluorescein diacetate (DCFH-DA) and thrombin were purchased from Sigma-Aldrich/Merck Millipore. DMSO solutions of 10–22 were diluted in saline immediately before each experiment. ROS production was quantified by DCFH-DA, a ROS-sensitive probe that yields, upon oxidation, the fluorescent adduct DCF that is trapped inside the cells. Briefly, washed platelets (1.0 × 10^8/mL), pre-incubated with saline solutions of 10–22 for 15 min at 37 °C, were stimulated by 0.1 U/mL thrombin. Incubation was stopped by cooling samples in an ice bath, and then samples were immediately analyzed in a Merck Millipore Bioscience Guava easyCyte flow cytometer (Merk Millipore, Burlington, MA, USA). The reported IC50 values represent the molar concentration of the compounds able to inhibit 50% of the maximal aggregation induced by the agonist and are calculated as the percentage inhibition of the maximal aggregation measured in the presence of the agent compared with the measure in a control sample containing saline, carried out under the same conditions. The IC50 values were extrapolated from nonlinear regression analysis of concentration–response curves (three points) using MS Excel software (Microsoft 365 suite). Each IC50 value is the mean of six independent experiments.

[12] = DPPH radical-scavenging activity; assay type: physicochemical; set-up: AA (%), percentage of antioxidant activity: concentration or dose not given beside the values; details: mean ± SD, n = 2
Description: The antioxidant activity of the representative compounds of the two series (namely, acylhydrazones 10b, 11a, 11d, 12d, 13d, and amides 14, 22) was measured in vitro using the 2,2-diphenyl-1-picrylhydrazyl (DPPH) assay. The results were calculated as Trolox equivalent and expressed as a percentage of antioxidant activity (AA) (Table 3). […] Derivatives 10b and 12d were endowed with the highest antioxidant activity, thus highlighting the relevance of both pyrazole N1 and acylhydrazone substituents on compounds’ radical scavenging properties.
Compounds 10b, 11a, 11d, 12d, 13d, 14, and 22 (ca. 3 mg) were dissolved in DMSO (1 mL), and then 100 µL of this solution was mixed with 3.9 mL of DPPH methanol solution (65 µM). Absorbance was measured at 517 nm after reacting for 30 min in the dark. The linear calibration curve was obtained using Trolox standards (ranging between 20 and 200 mg/L, R^2 = 0.9955). The result was calculated as Trolox equivalent in mg/L, and the percentage of antioxidant activity (AA%) was calculated from the ratio of decreasing absorbance of sample solution (A0 − As) to absorbance of blank DPPH solution (A0), as expressed in Equation (1). (1) AA%=A0−As/A0×100
All analyses were carried out in duplicate (n = 2), and values are given as means ± standard deviation (SD).

IC50 [10]	IC50 [11]	melting point	Compound	activity at 10 µM [1]	Mean growth percentage at 10 µM [2]	Mean growth percentage at 10 µM [3]	Mean growth percentage at 10 µM [4]	activity at 10 µM [5]	mean growth percentage (cell growth remaining vs control) at 10 µM [6]	Mean growth percentage at 10 µM [7]	Mean growth percentage at 10 µM [8]	Mean Growth Percentage [9]	AA (%), percentage of antioxidant activity [12]	DPPH (%) [12]
890 ± 19 µM	182 ± 11 µM	183 to 186 °C	COc1ccc(/C=N/NC(=O)c2c(N)nn(C)c2Nc2ccccc2)cc1OCc1ccccc1 [11d, (E)-3-amino-N′-(3-(benzyloxy)-4-methoxybenzylidene)-1-methyl-5-(phenylamino)-1H-pyrazole-4-carbohydrazide]	101%	111%	98.6%	90.2%	95.2%	82.9%	89%	103%	99.22%	15.53 ± 0.24%	84.47 ± 0.24%
433 ± 16 µM	171 ± 9 µM		COc1ccc(/C=N/NC(=O)c2c(Nc3ccccc3)nn(C)c2N)cc1OCc1ccccc1 [12d, (E)-5-amino-N′-(3-(benzyloxy)-4-methoxybenzylidene)-1-methyl-3-(phenylamino)-1H-pyrazole-4-carbohydrazide]	102%	105%	94.1%	90.6%	85.7%	85.2%	80.8%	106%	102.79%	69.10 ± 0.39%	30.90 ± 0.39%

The remaining lines, values behind:

Compound	IC50 [10]	IC50 [11]	melting point	activity at 10 µM [1]	Mean growth percentage at 10 µM [2]	Mean growth percentage at 10 µM [3]	Mean growth percentage at 10 µM [4]	activity at 10 µM [5]	mean growth percentage (cell growth remaining vs control) at 10 µM [6]	Mean growth percentage at 10 µM [7]	Mean growth percentage at 10 µM [8]	Mean Growth Percentage [9]	AA (%), percentage of antioxidant activity [12]	DPPH (%) [12]
COC(=O)c1c(NC(=O)c2cc(OC)c(OC)c(OC)c2)n[nH]c1Nc1ccccc1 [compound 14, Methyl 5-(phenylamino)-3-(3,4,5-trimethoxybenzamido)-1H-pyrazole-4-carboxylate]	365 ± 28 µM	387 ± 35 µM	164 to 166 °C	35.1%	67.2%	57%	53.8%	9.45%	66.1%	41.5%	38.5%	39.31%	3.62 ± 0.08%	96.38 ± 0.08%
CCOC(=O)c1c(NC(=O)c2cc(OC)c(OC)c(OC)c2)nn(C)c1Nc1ccccc1 [compound 22, Ethyl 1-methyl-5-(phenylamino)-3-(3,4,5-trimethoxybenzamido)-1H-pyrazole-4-carboxylate]	249 ± 22 µM	313 ± 25 µM	135 to 138 °C	106%	102%	140%	103%	109%	115%	84.1%	94.2%	57.94%	2.39 ± 0.24%	97.61 ± 0.24%
COc1ccc(/C=N/NC(=O)c2c(N)n[nH]c2Nc2ccccc2)cc1OC [10b, (E)-3-amino-N′-(3,4-dimethoxybenzylidene)-5-(phenylamino)-1H-pyrazole-4-carbohydrazide]	94 ± 7 µM	104 ± 4 µM		91.1%	115%	100%	91.6%	105%	95.3%	94.5%	114%	107.36%	76.45% and 76.45 ± 0.39%	23.55 ± 0.39%
